The text below walks through data of PMC8068820 (Viruses, 2021).

Entries after “also recorded” stand apart in the source; their conditions may differ. A value given as a limit tells only on which side of the number the result lay.

Data set [1] addresses T1, human NTCP (Homo sapiens, UniProt Q14973).
T1 construct: expressed in transfected cells
T1 sequence (Q14973 1-349): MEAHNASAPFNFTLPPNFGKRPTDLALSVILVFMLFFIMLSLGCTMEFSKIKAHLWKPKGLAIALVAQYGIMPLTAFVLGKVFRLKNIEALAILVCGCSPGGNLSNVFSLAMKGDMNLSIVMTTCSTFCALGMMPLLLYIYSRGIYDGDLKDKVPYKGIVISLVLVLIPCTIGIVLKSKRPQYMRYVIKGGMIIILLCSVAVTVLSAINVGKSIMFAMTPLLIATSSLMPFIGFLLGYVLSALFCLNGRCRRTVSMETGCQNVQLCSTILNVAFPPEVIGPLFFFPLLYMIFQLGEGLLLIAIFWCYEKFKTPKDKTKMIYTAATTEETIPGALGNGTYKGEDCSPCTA
Description: [3H]preS1 peptide. It counts as binding. The note with it: for remaining activity at 100 µM / inhibition at 100 µM: 100 µM inhibitor; for remaining activity at 100 µM: 5 nM [3H]preS1, pre-screen, read-out: remaining [3H]preS1 binding compared to untreated control; for [3H]preS1 binding inhibition (in words): 100 µM inhibitor where from Figure 6, SAR statements; for virus/preS1 selectivity (in words): [3H]preS1 binding versus [3H]TC uptake inhibition; for inhibition at 100 µM: 5 nM [3H]preS1, read-out: inhibition of [3H]preS1 peptide binding.

The target of data set [2] is T1, human NTCP. The experiment in a line: [3H]taurocholic acid ([3H]TC) transport inhibition in NTCP-HEK293 cells. It counts as cell-based. Conditions: for IC50: NTCP-HEK293 cells.
In the next data set the test system is NTCP-HepG2 cells. Description: MTT cytotoxicity assay in NTCP-HepG2 cells. It counts as cell-based, human. The note with it: NTCP-HepG2 cells, 5, 50 and 300 µM, 6 h incubation. (In general: Formazan colour is commonly taken as a measure of viable cells.)
In the next data set the test system is HDV. Description: In vitro HDV infection of NTCP-HepG2 cells (HDAg immunostaining). It counts as cell-based, Hepatitis D virus. Conditions: 5 µM to 300 µM.
[3] abbreviates: 5 nM [3H]preS1, NTCP-HEK293 cells, read-out: IC50 [3H]preS1 binding inhibition (single value).
[4] abbreviates: 95% confidence interval, inhibition of 5 nM [3H]preS1 binding, NTCP-HEK293 cells, 10 min, 37 °C, read-out: IC50 ([3H]preS1 Binding).
Setting [5] is: 95% confidence interval, inhibition of 1 µM [3H]TC uptake, 10 min, 37 °C, read-out: IC50 ([3H]TC Uptake).
Where [6] appears, read: 1 µM [3H]TC, read-out: IC50 taurocholic acid uptake inhibition (single value).

For orientation: IC50 means the point on the concentration scale where inhibition reaches its midpoint. Consider `O[C@H](c1ccccc1)[C@@H](c1ccc2ccccc2n1)[C@H](Nc1ccccn1)c1ccccc1` [A000295013], for which the IC50 on human NTCP [1] (setting [3]) is roughly 130 µM; on human NTCP [1] (setting [4]) it was 73 to 194 µM; on human NTCP [2] (setting [5]), greater than 1000 µM. In addition, the remaining activity at 100 µM on human NTCP [1] was less than 50%.
Consider `O[C@@H](c1ccccc1)[C@H](c1ccccn1)[C@@H](Nc1ccccn1)c1ccccc1` [S957291], for which the “[3H]preS1 binding inhibition (in words)” value at human NTCP [1] was “significantly increased the inhibitory potency”. The “[3H]TC uptake inhibition (in words)” value on human NTCP [2] (100 µM inhibitor, Figure 6) is recorded as “significantly increased the inhibitory potency”.
`O[C@@H](c1cccnc1)[C@H](c1ccccn1)[C@@H](Nc1ccccn1)c1ccccc1` [S958009]: the “[3H]preS1 binding inhibition (in words)” value on human NTCP [1] was “inactive”.
As for `O[C@@H](c1ccccc1)[C@@H](c1ccccn1)[C@H](Nc1ccccn1)c1cccc(Br)c1` [A000289041], on human NTCP [1], the “[3H]preS1 binding inhibition (in words)” value is “relatively high” and the remaining activity at 100 µM was less than 50%. For the same molecule, the IC50 on human NTCP [1] (setting [4]) was in the range of 35 to 224 µM. The IC50 on human NTCP [2] (setting [5]) is greater than 1000 µM.
As for `Nc1ccc([C@H](O)[C@H](c2ccccn2)[C@@H](Nc2ccccn2)c2ccccc2)cc1` [A000295724], the “[3H]preS1 binding inhibition (in words)” value on human NTCP [1] was “inactive”.
Regarding `Oc1cccc([C@H](O)[C@H](c2ccccn2)[C@@H](Nc2ccccn2)c2ccccc2)c1` [A000296584], the “[3H]preS1 binding inhibition (in words)” value on human NTCP [1] is reported as “significant, but less active inhibitors”.
On the same count and under the same terms, the result for `O[C@H](c1ccccc1)[C@@H](c1ccccn1)[C@H](Nc1ccccc1)c1ccccc1` [A000295238] reads “inactive”.
Consider `O=C(Nc1ccc(Cl)cc1)c1cc(Oc2ccc(Cl)cc2)ccc1NS(=O)(=O)c1ccc(Cl)cc1` [A000028897], for which the “Cytotoxicity (in words)” value with NTCP-HepG2 cells is listed as “obvious cytotoxicity even at low (5 µM) concentrations; also recorded: toxic”. The remaining activity at 100 µM on human NTCP [1] was less than 50%. For the same molecule, the IC50 at human NTCP [1] (setting [4]) was 3 to 24 µM; on human NTCP [2] (setting [5]) it was 16 to 62 µM. Moreover, the “virus/preS1 selectivity (in words)” value at human NTCP [1] is reported as “more or less non-selective”.
Take `COc1ccc([C@H](O)[C@H](c2ccccn2)[C@@H](Nc2ccccn2)c2ccccc2)cc1` [A000295231]: the “inhibition of in vitro HDV infection (in words)” value in the data set with HDV is listed as “significant concentration-dependent inhibition; also recorded: active against in vitro HDV infection”. For the same molecule, the IC50 was 17 µM on human NTCP [1] (setting [3]), 4 to 29 µM on human NTCP [1] (setting [4]), 780 µM on human NTCP [2] (setting [6]) and 341 to 1220 µM on human NTCP [2] (setting [5]). For the same molecule, on human NTCP [1], the “[3H]preS1 binding inhibition (in words)” value is given as “even further improved the inhibitory potency”. Also, at human NTCP [1], the remaining activity at 100 µM was less than 50%. In addition, at human NTCP [1], the “virus/preS1 selectivity (in words)” value was “some selectivity towards the virus receptor function of NTCP”.
On to `O=Cc1cccc([C@@H]([C@H](Nc2ccccn2)c2ccccc2)[C@@H](O)c2ccccc2)n1` [S985852], for which the “Cytotoxicity (in words)” value in the data set with NTCP-HepG2 cells was “critical cytotoxicity at 300 µM”. Also, the “inhibition of in vitro HDV infection (in words)” value in the data set with HDV is on record as “significant concentration-dependent inhibition; also recorded: active against in vitro HDV infection”. In addition, the IC50 at human NTCP [1] (setting [3]) is roughly 15 µM; on human NTCP [1] (setting [4]), 8 to 24 µM; at human NTCP [2] (setting [6]), 24 µM; at human NTCP [2] (setting [5]) it was 13 to 34 µM. The remaining activity at 100 µM on human NTCP [1] was less than 50%. Moreover, the “virus/preS1 selectivity (in words)” value on human NTCP [1] is listed as “more or less non-selective”.
Regarding `COc1cccc([C@H](O)[C@H](c2ccccn2)[C@@H](Nc2ccccn2)c2ccccc2)c1` [S963601], the “[3H]preS1 binding inhibition (in words)” value on human NTCP [1] is reported as “significant, but less active inhibitors”.
For the molecule `O[C@H](c1ccc([C@@H](O)[C@@H](c2ccccn2)[C@H](Nc2ccccn2)c2ccccc2)cc1)[C@@H](c1ccccn1)[C@H](Nc1ccccn1)c1ccccc1` [S973509], the “inhibition of in vitro HDV infection (in words)” value in the data set on HDV is “significant concentration-dependent inhibition; also recorded: active against in vitro HDV infection”. Also, the IC50 is 7 µM on human NTCP [1] (setting [3]), 3 to 10 µM on human NTCP [1] (setting [4]), 490 µM at human NTCP [2] (setting [6]) and 202 to 775 µM at human NTCP [2] (setting [5]). At human NTCP [1], the remaining activity at 100 µM was less than 50%. Besides, on human NTCP [1], the “virus/preS1 selectivity (in words)” value was “some selectivity towards the virus receptor function of NTCP”.
With `O[C@@H](c1ccccc1)[C@@H](c1ccccn1)[C@H](Nc1ccccn1)c1cccc2ccccc12` [S973515], at human NTCP [1], the “[3H]preS1 binding inhibition (in words)” value was “relatively high”. Also, the remaining activity at 100 µM on human NTCP [1] is less than 50%. The IC50 was in the range of 39 to 148 µM at human NTCP [1] (setting [4]) and 413 to 1240 µM on human NTCP [2] (setting [5]).
Usually inhibition stands for the change of the read-out against control, counted positive when it falls. `O[C@@H](c1ccccc1)[C@@H](c1ccccn1)[C@H](Nc1ccccn1)c1ccsc1` [A000344053]: at human NTCP [1], the “[3H]preS1 binding inhibition (in words)” value is “significant but less potent” and the inhibition at 100 µM is no more than 50%.
As for `O[C@@H](c1ccccc1)[C@H](c1ccccn1)[C@@H](Nc1ccc(Cl)cn1)c1ccccc1` [A000296575], on human NTCP [1], the “[3H]preS1 binding inhibition (in words)” value is given as “significant but less potent” and the inhibition at 100 µM is no more than 50%.
`O[C@H](c1ccccc1)[C@@H](c1ccccn1)[C@H](Nc1ccc(F)cn1)c1ccccc1` [A000295230]: on human NTCP [1], the “[3H]preS1 binding inhibition (in words)” value is listed as “significant but less potent” and the inhibition at 100 µM was no more than 50%.
For `O[C@H](c1ccc2ccccc2c1)[C@H](c1ccccn1)[C@@H](Nc1ccccn1)c1ccccc1` [A000294559], in that order: “significant but less potent” and no more than 50%.
In the case of `COc1ccc(N[C@H](c2ccccc2)[C@H](c2ccccn2)[C@H](O)c2ccccc2)nc1` [A000295480], at human NTCP [1], the “[3H]preS1 binding inhibition (in words)” value is given as “relatively high”, the remaining activity at 100 µM is less than 50% and the “virus/preS1 selectivity (in words)” value is given as “more or less non-selective”. Further, on human NTCP [1] (setting [4]), the IC50 is 32 to 297 µM. In addition, the IC50 on human NTCP [2] (setting [5]) fell in the range of 145 to 1320 µM.
